Consider one molecule from ChEMBL document CHEMBL5357004 (J Nat Prod, 2024).

Calls of active or inactive are those of the source. The rule behind the calls is not given here.

The nature of data set [1]: Effect on CEBPB mRNA level in mouse Adipocyte by qRT-PCR analysis. In kind it is functional. On the technique in general: Real-time PCR tracks product formation cycle by cycle.
Data set [2] is described as follows: Effect on Pparg2 mRNA level in mouse Adipocyte by qRT-PCR analysis. Format: functional.
Data set [3] is described as follows: Cytotoxicity against C57BL6/J mouse brown Preadipocyte assessed as decrease in cell viability at 4 uM measured for 24 hrs by trypan blue staining based hemocytometer analysis. Format: toxicity.
The test system of data set [4] is Adipocyte. Put plainly: Downregulation of C/EBPdelta protein expression level in mouse brown Adipocyte by Western blot analysis. In kind it is functional, cell-based.
Data set [5] in a line: Cytotoxicity against C57BL6/J mouse brown Preadipocyte assessed as decrease in cell viability > 8 uM measured for 24 hrs by trypan blue staining based hemocytometer analysis. In kind it is toxicity.
A short description of data set [6]: Downregulation of C/EBPdelta protein expression level in mouse Adipocyte by Western blot analysis. Format: functional. (In western blotting, separated proteins are transferred to a membrane and probed.)
Data set [7] in a line: Effect on Pparg1 mRNA level in mouse Adipocyte by qRT-PCR analysis. In kind it is functional.
Data set [8] in a line: Effect on CD36 mRNA level in mouse Adipocyte by qRT-PCR analysis. Format: functional.
Data set [9] concerns Adipocyte. Put plainly: Potentiation of CL-316243-stimulated mouse Brown adipocyte activation assessed as increase in Ucp1 expression at 4 uM pretreated with compound for 9 hr followed by CL-316243 induction and measured after 8 hrs by qRT-PCR analysis. The settings on record: time 17.0 hrs. In kind it is functional, cell-based.
For data set [10], the system named is Adipocyte. Put plainly: Potentiation of CL-316243-stimulated mouse Brown adipocyte activation assessed as increase in PPARA mRNA expression at 4 uM pretreated with compound for 9 hr followed by CL-316243 induction and measured after 8 hrs by qRT-PCR analysis. Format: functional, cell-based. The conditions noted are these: time 17.0 hrs.
Data set [11] deals with Adipocyte. Put plainly: Potentiation of CL-316243-stimulated mouse Brown adipocyte activation assessed as increase in ELVOL6 mRNA expression at 4 uM pretreated with compound for 9 hr followed by CL-316243 induction and measured after 8 hrs by qRT-PCR analysis. In kind it is functional, cell-based. The settings on record: time 17.0 hrs.
For data set [12], the system named is Adipocyte. Put plainly: Effect on C/EBPdelta mRNA level in mouse brown Adipocyte by qRT-PCR analysis. Format: functional, cell-based.
In data set [13] the test system is Adipocyte. Put plainly: Potentiation of CL-316243-stimulated mouse Brown adipocyte activation assessed as increase in CIDEA mRNA expression at 4 uM pretreated with compound for 9 hr followed by CL-316243 induction and measured after 8 hrs by qRT-PCR analysis. Format: functional, cell-based. The settings on record: time 17.0 hrs.
Data set [14] concerns Adipocyte. Put plainly: Potentiation of CL-316243-stimulated mouse Brown adipocyte activation assessed as increase in ELOVL3 mRNA expression at 4 uM pretreated with compound for 9 hr followed by CL-316243 induction and measured after 8 hrs by qRT-PCR analysis. Format: functional, cell-based. The conditions noted are these: time 17.0 hrs.
The test system of data set [15] is Adipocyte. Put plainly: Potentiation of CL-316243-stimulated mouse Brown adipocyte activation assessed as increase in CTP1B mRNA expression at 4 uM pretreated with compound for 9 hr followed by CL-316243 induction and measured after 8 hrs by qRT-PCR analysis. The conditions noted are these: time 17.0 hrs. Format: functional, cell-based.
The test system of data set [16] is Adipocyte. Put plainly: Potentiation of CL-316243-stimulated mouse Brown adipocyte activation assessed as increase in FGF21 mRNA expression at 4 uM pretreated with compound for 9 hr followed by CL-316243 induction and measured after 8 hrs by qRT-PCR analysis. Format: functional, cell-based. The settings on record: time 17.0 hrs.
For data set [17], the system named is Adipocyte. Put plainly: Downregulation of C/EBPalpha protein expression level in mouse Adipocyte by Western blot analysis. In kind it is functional, cell-based.
A short description of data set [18]: Inhibition of adipogenic differentiation in C57BL/6J mouse brown Preadipocyte assessed as reduction in neutral lipid content at 4 uM by Oil Red O staining based light microscopy. Format: functional.
Data set [19] is described as follows: Effect on CEBPA mRNA level in mouse Adipocyte by qRT-PCR analysis. In kind it is functional.
Data set [20] relates to Adipocyte. Put plainly: Potentiation of CL-316243-stimulated mouse Brown adipocyte activation assessed as increase in CPT2 mRNA expression at 4 uM pretreated with compound for 9 hr followed by CL-316243 induction and measured after 8 hrs by qRT-PCR analysis. The settings on record: time 17.0 hrs. In kind it is functional, cell-based.
The subject of data set [21] is Adipocyte. Put plainly: Downregulation of C/EBPbeta protein expression level in mouse Adipocyte by Western blot analysis. In kind it is functional, cell-based.
Data set [22] relates to Adipocyte. Put plainly: Potentiation of CL-316243-stimulated mouse Brown adipocyte activation assessed as increase in CPT1a mRNA expression at 4 uM pretreated with compound for 9 hr followed by CL-316243 induction and measured after 8 hrs by qRT-PCR analysis. In kind it is functional, cell-based. The conditions noted are these: time 17.0 hrs.

Broadly, the inhibition is the percentage by which the read-out fell short of the control. For `COc1c(C)c(O)c2c(=O)c(OC)c(-c3ccc(O)cc3)oc2c1OC`, the Activity is listed as 50.3% in data set [1]; 50.3% in [2]; “Non-Toxic” in [3]; “Non-Toxic” in data set [5]; 31.93% in data set [6]; 50.3% in data set [7]. Besides, the Activity in data set [8] is reported as 24.18%; in [19], 50.3%. For the same molecule, the outcome with Adipocyte [4] and in the data set on Adipocyte [12] was Active. Besides, the outcome with Adipocyte [9], with Adipocyte [10], with Adipocyte [11], in the data set on Adipocyte [13], in the data set on Adipocyte [14] and in the data set with Adipocyte [15] was inactive. Besides, the outcome in the data set with Adipocyte [16], in the data set on Adipocyte [17], in the data set on Adipocyte [20], in the data set on Adipocyte [21] and with Adipocyte [22] was inactive. Moreover, in data set [18], the inhibition at 4 µM came to 54.8%.
